Structures can show the parent of a compound that is named as a salt. Where two headings read alike, the source gives them in different places.
How the values were obtained:
human NTCP [1] = target: T1, human NTCP (Homo sapiens, UniProt Q14973); assay: Screening taurocholate uptake assay (96-well, [14C]taurocholate, 10 µM drug)
T1 sequence (Q14973 1-349): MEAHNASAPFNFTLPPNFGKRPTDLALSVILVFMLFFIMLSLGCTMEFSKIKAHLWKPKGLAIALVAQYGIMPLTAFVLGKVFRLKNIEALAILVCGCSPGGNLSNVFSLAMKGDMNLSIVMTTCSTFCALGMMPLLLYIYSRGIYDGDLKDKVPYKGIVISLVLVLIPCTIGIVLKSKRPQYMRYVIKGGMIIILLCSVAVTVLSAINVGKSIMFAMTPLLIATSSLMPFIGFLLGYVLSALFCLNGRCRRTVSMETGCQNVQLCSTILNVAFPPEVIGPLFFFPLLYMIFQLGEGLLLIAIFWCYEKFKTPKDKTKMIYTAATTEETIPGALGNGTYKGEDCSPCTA

human NTCP [2] = target: T1, human NTCP; assay: Screening fluorescent competitive Myrcludex B-FITC binding assay (96-well, 10 µM drug)
[3] = combined ranking from functional and binding screening assays
[4] = screen, 10 µM drug, taurocholate uptake
[5] = screen, 10 µM drug, Myrcludex B-FITC binding
[6] = Prestwick library screen, taurocholate uptake, 10 µM drug
[7] = ranking score beside the functional and binding assay B-scores of the screen
[8] = Prestwick library screen, Myrcludex B-FITC binding, 10 µM drug
[9] = Prestwick library screen, 10 µM drug, B-score of taurocholate uptake
[10] = combined ranking from functional and binding assay B-scores
[11] = Prestwick library screen, 10 µM drug, B-score of Myrcludex B-FITC binding

## Deoxycorticosterone
Human NTCP [1]; [3]
  Ranking score: 460.68
Human NTCP [1]; [4]
  B-score functional assay: -0.349
Human NTCP [2]; [5]
  B-score binding assay: -0.204

## CC[C@@]1(O)C(=O)OCc2c1cc1n(c2=O)Cc2cc3c(CN(C)C)c(O)ccc3nc2-1 [Topotecan]
Human NTCP [1]; [6]
  B-score functional assay: 0.858
Human NTCP [1]; [7]
  Ranking score: 819.148
Human NTCP [2]; [8]
  B-score binding assay: 0.007

## CCCCN(CCCC)CCCOC(=O)c1ccc(N)cc1 [Butacaine]
Human NTCP [1]; [6]
  B-score functional assay: -0.185
Human NTCP [1]; [7]
  Ranking score: 672.37
Human NTCP [2]; [8]
  B-score binding assay: 0.529

## CCCNCC(O)COc1ccccc1C(=O)CCc1ccccc1 (stereo not drawn) [Propafenone hydrochloride]
Human NTCP [1]; [6]
  B-score functional assay: -0.211
Human NTCP [1]; [7]
  Ranking score: 771.984
Human NTCP [2]; [8]
  B-score binding assay: 2.716

## Nc1nc(F)nc2c1ncn2[C@@H]1O[C@H](CO)[C@@H](O)[C@@H]1O [Fludarabine]
Human NTCP [1]; [6]
  B-score functional assay: 1.199
Human NTCP [1]; [7]
  Ranking score: 822.35
Human NTCP [2]; [8]
  B-score binding assay: -0.02

## CCC1NC(=O)c2cc(S(N)(=O)=O)c(Cl)cc2N1 (stereo not drawn) [Quinethazone]
Human NTCP [1]; [6]
  B-score functional assay: 1.708
Human NTCP [1]; [7]
  Ranking score: 787.128
Human NTCP [2]; [8]
  B-score binding assay: -0.124

## Cl.N[C@@H]1CCCCN(c2c(F)cc3c(=O)c(C(=O)O)cn(C4CC4)c3c2Cl)C1 [Besifloxacin hydrochloride]
Human NTCP [1]; [9]
  B-score functional assay: 1.274
Human NTCP [1]; [10]
  Ranking score: 1087.71
Human NTCP [2]; [11]
  B-score binding assay: 1.112

## NCC[C@H](O)C(=O)N[C@@H]1C[C@H](N)[C@@H](O[C@H]2O[C@H](CN)[C@@H](O)[C@H](O)[C@H]2O)[C@H](O)[C@H]1O[C@H]1O[C@H](CO)[C@@H](O)[C@H](N)[C@H]1O [Amikacin hydrate]
Human NTCP [1]; [9]
  B-score functional assay: 1.395
Human NTCP [1]; [10]
  Ranking score: 1074.44
Human NTCP [2]; [11]
  B-score binding assay: 0.912

## CNCCCC1c2ccccc2C=Cc2ccccc21 [Protriptyline hydrochloride]
Human NTCP [1]; [3]
  Ranking score: 390.896
Human NTCP [1]; [4]
  B-score functional assay: -0.483
Human NTCP [2]; [5]
  B-score binding assay: -0.431

## COc1ccccc1O [Guaiacol]
Human NTCP [1]; [6]
  B-score functional assay: -0.032
Human NTCP [1]; [7]
  Ranking score: 782.911
Human NTCP [2]; [8]
  B-score binding assay: 0.94

## CCc1c(C)[nH]c2c1C(=O)C(CN1CCOCC1)CC2 (stereo not drawn) [Molindone hydrochloride]
Human NTCP [1]; [3]
  Ranking score: 412.337
Human NTCP [1]; [4]
  B-score functional assay: -0.958
Human NTCP [2]; [5]
  B-score binding assay: 0.009

## CC(C)NC[C@@H](O)c1ccc(O)c(O)c1.O=C(O)C(O)C(O)C(=O)O [(+)-Isoproterenol (+)-bitartrate salt]
Human NTCP [1]; [6]
  B-score functional assay: 2.072
Human NTCP [1]; [7]
  Ranking score: 708.011
Human NTCP [2]; [8]
  B-score binding assay: -0.368

## Cl.N=C(N=C(N)N)N1CCOCC1 [Moroxidine hydrochloride]
Human NTCP [1]; [9]
  B-score functional assay: 1.373
Human NTCP [1]; [10]
  Ranking score: 1132.99
Human NTCP [2]; [11]
  B-score binding assay: 1.496

## Cc1cc(C(C)(C)C)cc(C)c1CC1=NCCN1 [Xylometazoline hydrochloride]
Human NTCP [1]; [3]
  Ranking score: 287.23
Human NTCP [1]; [4]
  B-score functional assay: -0.462
Human NTCP [2]; [5]
  B-score binding assay: -1.17

## Cc1ncc([N+](=O)[O-])n1CCO [Metronidazole]
Human NTCP [1]; [9]
  B-score functional assay: 1.996
Human NTCP [1]; [10]
  Ranking score: 878.042
Human NTCP [2]; [11]
  B-score binding assay: 0

## C[C@]12CC[C@H](O)C[C@H]1CC[C@@H]1[C@@H]2CC[C@]2(C)[C@@H](C3=CC(=O)OC3)CC[C@]12O [Digitoxigenin]
Human NTCP [1]; [3]
  Ranking score: 348.633
Human NTCP [1]; [4]
  B-score functional assay: -2.282
Human NTCP [2]; [5]
  B-score binding assay: 1.274

## CC(=O)O[C@H]1C[C@@H]2CC[C@@H]3[C@H](CC[C@@]4(C)[C@H]3C[C@H]([N+]3(C)CCCCC3)[C@@H]4OC(C)=O)[C@@]2(C)C[C@@H]1[N+]1(C)CCCCC1 [Pancuronium bromide]
Human NTCP [1]; [6]
  B-score functional assay: 0.614
Human NTCP [1]; [7]
  Ranking score: 767.5
Human NTCP [2]; [8]
  B-score binding assay: -0.008

## O=C(O)c1cc(=O)c2c(OCC(O)COc3cccc4oc(C(=O)O)cc(=O)c34)cccc2o1 [Cromolyn disodium salt]
Human NTCP [1]; [9]
  B-score functional assay: 0.688
Human NTCP [1]; [10]
  Ranking score: 903.754
Human NTCP [2]; [11]
  B-score binding assay: 0.29

## COc1cc(C(=O)N2CCOCC2)cc(OC)c1OC [Trimetozine]
Human NTCP [1]; [9]
  B-score functional assay: 0.651
Human NTCP [1]; [10]
  Ranking score: 925.93
Human NTCP [2]; [11]
  B-score binding assay: 0.441

## NCCc1ccc(O)c(O)c1 [Dopamine hydrochloride]
Human NTCP [1]; [6]
  B-score functional assay: -0.07
Human NTCP [1]; [7]
  Ranking score: 802.566
Human NTCP [2]; [8]
  B-score binding assay: 1.493

## NS(=O)(=O)c1cc2c(cc1Cl)N=CNS2(=O)=O [Chlorothiazide]
Human NTCP [1]; [9]
  B-score functional assay: 1.41
Human NTCP [1]; [10]
  Ranking score: 967.179
Human NTCP [2]; [11]
  B-score binding assay: 0.263

## CN[C@H](CC(C)C)C(=O)N[C@H]1C(=O)N[C@@H](CC(N)=O)C(=O)N[C@H]2C(=O)N[C@H]3C(=O)N[C@H](C(=O)N[C@H](C(=O)O)c4cc(O)cc(O)c4-c4cc3ccc4O)[C@H](O)c3ccc(c(Cl)c3)Oc3cc2cc(c3O[C@@H]2O[C@H](CO)[C@@H](O)[C@H](O)[C@H]2O[C@H]2C[C@](C)(N)[C@H](O)[C@H](C)O2)Oc2ccc(cc2Cl)[C@H]1O [Vancomycin hydrochloride]
Human NTCP [1]
  B-score functional assay: -0.819
  Ranking score: 571.108
Human NTCP [2]
  B-score binding assay: 1.401

## CCN(CC)CCNC(C(=O)OCCC(C)C)c1ccccc1.Cl.Cl (stereo not drawn) [Camylofine chlorhydrate]
Human NTCP [1]; [9]
  B-score functional assay: 1.768
Human NTCP [1]; [10]
  Ranking score: 947.253
Human NTCP [2]; [11]
  B-score binding assay: 0.138

## CN1Cc2c(N)cccc2C(c2ccccc2)C1 (stereo not drawn) [Nomifensine maleate]
Human NTCP [1]; [3]
  Ranking score: 394.208
Human NTCP [1]; [4]
  B-score functional assay: 0.089
Human NTCP [2]; [5]
  B-score binding assay: -1.176

## N[C@@H]1C[C@H]1c1ccccc1 [Tranylcypromine hydrochloride]
Human NTCP [1]
  B-score functional assay: 0.857
  Ranking score: 1041.86
Human NTCP [2]
  B-score binding assay: 1.095

## Cc1onc(-c2ccccc2)c1C(=O)N[C@@H]1C(=O)N2[C@@H]1SC(C)(C)[C@@H]2C(=O)[O-].[Na+] [Oxacillin sodium]
Human NTCP [1]; [9]
  B-score functional assay: 0.869
Human NTCP [1]; [10]
  Ranking score: 869.572
Human NTCP [2]; [11]
  B-score binding assay: 0.083

## CC(C)NCC(O)c1ccc(O)c(O)c1.Cl (single isomer, unassigned; (-)) [(-)-Isoproterenol hydrochloride]
Human NTCP [1]; [9]
  B-score functional assay: 0.061
Human NTCP [1]; [10]
  Ranking score: 845.999
Human NTCP [2]; [11]
  B-score binding assay: 0.852

## [H]/N=C(/NCCCCC)N/N=C/c1c[nH]c2ccc(OC)cc12 [Tegaserod maleate]
Human NTCP [1]; [9]
  B-score functional assay: 1.009
Human NTCP [1]; [10]
  Ranking score: 947.847
Human NTCP [2]; [11]
  B-score binding assay: 0.318

## COc1cccc2c1C(=O)c1c(O)c3c(c(O)c1C2=O)C[C@@](O)(C(=O)CO)C[C@@H]3O[C@H]1C[C@H](N)[C@H](O)[C@H](C)O1 [Doxorubicin hydrochloride]
Human NTCP [1]
  B-score functional assay: 0.02
  Ranking score: 577.781
Human NTCP [2]
  B-score binding assay: -0.177

## CN(C)CC/C=C1\c2ccccc2CSc2ccccc21 [Dosulepin hydrochloride]
Human NTCP [1]; [3]
  Ranking score: 296.985
Human NTCP [1]; [4]
  B-score functional assay: -2.363
Human NTCP [2]; [5]
  B-score binding assay: 0.311

## Norgestrel-(-)-D
Human NTCP [1]; [6]
  B-score functional assay: 0.036
Human NTCP [1]; [7]
  Ranking score: 704.84
Human NTCP [2]; [8]
  B-score binding assay: 0.069

## C[C@]12C=CC(=O)C=C1CC[C@@H]1[C@@H]2C(=O)C[C@@]2(C)[C@H]1CC[C@]2(O)C(=O)CO [Prednisone]
Human NTCP [1]; [3]
  Ranking score: 427.034
Human NTCP [1]; [4]
  B-score functional assay: -1.367
Human NTCP [2]; [5]
  B-score binding assay: 0.54

## CN(C)c1ccc(O)c2c1C[C@H]1C[C@H]3[C@H](N(C)C)C(O)=C(C(N)=O)C(=O)[C@@]3(O)C(O)=C1C2=O [Minocycline hydrochloride]
Human NTCP [1]
  B-score functional assay: 0.089
Human NTCP [1]; [7]
  Ranking score: 838.821
Human NTCP [2]; [8]
  B-score binding assay: 0.626

## CC(C(=O)O)c1ccc(C(=O)c2ccccc2)s1 (stereo not drawn) [Tiaprofenic acid]
Human NTCP [1]; [9]
  B-score functional assay: 0.836
Human NTCP [1]; [10]
  Ranking score: 1082.46
Human NTCP [2]; [11]
  B-score binding assay: 1.57

## COP(=O)(OC)C(O)C(Cl)(Cl)Cl (stereo not drawn) [Trichlorfon]
Human NTCP [1]; [3]
  Ranking score: 431.184
Human NTCP [1]; [4]
  B-score functional assay: -0.853
Human NTCP [2]; [5]
  B-score binding assay: 0.016

## Nc1cc(-c2ccncc2)c[nH]c1=O [Amrinone]
Human NTCP [1]; [3]
  Ranking score: 350.268
Human NTCP [1]; [4]
  B-score functional assay: -1.236
Human NTCP [2]; [5]
  B-score binding assay: -0.056

Source: paper PMC5681660, “Reduced hepatitis B and D viral entry using clinically applied drugs as novel inhibitors of the bile acid transporter NTCP” (Scientific Reports, 2017)
